ChEMBL document CHEMBL1122528, “Synthesis and evaluation of furan, thiophene, and azole bis[(carbamoyloxy)methyl] derivatives as potential antineoplastic agents” (J Med Chem, 1984)
Calls of active or inactive are those of the source. No cut-off for these calls is given here.

System: P388
Test: Compound was tested for antileukemic activity against murine P388 lymphocytic leukemia; Inactive
Type: functional, cell-based
Settings: Mus musculus

| SMILES | Activity |
| --- | --- |
| CNC(=O)OCc1c(COC(=O)NC)c(-c2ccc(C)cc2)n(C)c1C | inactive |
| CNC(=O)OCc1onc(-c2ccccc2)c1COC(=O)NC | inactive |
| CNC(=O)OCc1cn(-c2ccc(Cl)c(Cl)c2)nc1COC(=O)NC | inactive |
| CNC(=O)OCc1nnn(-c2ccccc2)c1COC(=O)NC | inactive |
| CNC(=O)OCc1c(C)sc(-c2ccccc2)c1COC(=O)NC | inactive |
| CNC(=O)OCc1nc(-c2ccccc2)oc1COC(=O)NC | inactive |
| CNC(=O)OCc1c(COC(=O)NC)c(C)n(-c2ccccc2)c1C | inactive |
| CNC(=O)OCc1snc(-c2ccccc2)c1COC(=O)NC | inactive |
| CNC(=O)OCc1nc(-c2ccccc2)sc1COC(=O)NC | inactive |
